Data on 7 cell lines can be found in the supplement of paper PMC10307832.

What all share (assay): relative viability (nuclei count vs DMSO), 5 days (fraction); higher = more cells survive
Compound in experiment [1]: C[C@]12O[C@H](C[C@]1(O)CO)n1c3ccccc3c3c4c(c5c6ccccc6n2c5c31)CNC4=O [Lestaurtinib] + CC1(C)CCC(c2ccc(Cl)cc2)=C(CN2CCN(c3ccc(C(=O)NS(=O)(=O)c4ccc(N[C@H](CCN5CCOCC5)CSc5ccccc5)c(S(=O)(=O)C(F)(F)F)c4)cc3)CC2)C1 [Navitoclax] (partner 0.5 µM)
The method in brief: (§1)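 Nuclei were stained with Hoechst during a one-step fixation (final 0.05% Triton X-100, 1% formaldehyde, 1 ug/ml Hoechst) carried out 5 days after dosing, then counted on 4× images. The cells, lung cancer lines in 1536-well plates, had been dosed by pin tool the day after seeding with one drug alone or a fixed anchor-drug dose plus five library-drug doses (not always all listed) in √10 steps. Relative viability is the nuclei count in treated wells divided by that in vehicle wells, and each value is the median of duplicate plates.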

Compound in the experiment “Lestaurtinib + Foretinib”: C[C@]12O[C@H](C[C@]1(O)CO)n1c3ccccc3c3c4c(c5c6ccccc6n2c5c31)CNC4=O [Lestaurtinib] + COc1cc2c(Oc3ccc(NC(=O)C4(C(=O)Nc5ccc(F)cc5)CC4)cc3F)ccnc2cc1OCCCN1CCOCC1 [Foretinib] (partner 0.25 µM)
The method in brief: as §1

Compound in the experiment “Lestaurtinib + Dasatinib”: C[C@]12O[C@H](C[C@]1(O)CO)n1c3ccccc3c3c4c(c5c6ccccc6n2c5c31)CNC4=O [Lestaurtinib] + Cc1nc(Nc2ncc(C(=O)Nc3c(C)cccc3Cl)s2)cc(N2CCN(CCO)CC2)n1 [Dasatinib] (partner 0.075 µM)
An outline of the steps:
as §1

Compound in experiment [2]: C[C@]12O[C@H](C[C@]1(O)CO)n1c3ccccc3c3c4c(c5c6ccccc6n2c5c31)CNC4=O [Lestaurtinib] + Nc1nc2[nH]cc(CCc3ccc(C(=O)N[C@@H](CCC(=O)O)C(=O)O)cc3)c2c(=O)[nH]1 [Pemetrexed] (partner 0.2 µM)
The method in brief: as §1

Take NCI-H1651: the relative viability in experiment [1] (first compound 0.005 µM) turned out to be 1.12; in experiment [1] (first compound 0.01581 µM), 1.12; in experiment [1] (first compound 0.05 µM) it was 0.79; in experiment [1] (first compound 0.1581 µM) it was 1.05; in experiment [1] (first compound 0.5 µM), 0.471; in the experiment with Lestaurtinib + Foretinib (first compound 0.005 µM), 0.85. The relative viability stood at 0.8 with Lestaurtinib + Foretinib (first compound 0.01581 µM); 0.844 with Lestaurtinib + Foretinib (first compound 0.05 µM); 0.865 with Lestaurtinib + Foretinib (first compound 0.1581 µM); 0.53 with Lestaurtinib + Foretinib (first compound 0.5 µM); 0.395 with Lestaurtinib + Dasatinib (first compound 0.005 µM); 0.557 with Lestaurtinib + Dasatinib (first compound 0.01581 µM). Further, the relative viability with Lestaurtinib + Dasatinib (first compound 0.05 µM) turned out to be 0.393; with Lestaurtinib + Dasatinib (first compound 0.1581 µM), 0.443; with Lestaurtinib + Dasatinib (first compound 0.5 µM), 0.248; in experiment [2] (first compound 0.005 µM) it was 0.534; in experiment [2] (first compound 0.01581 µM), 0.722; in experiment [2] (first compound 0.05 µM), 0.571. Besides, the relative viability in experiment [2] (first compound 0.1581 µM) turned out to be 0.615; in experiment [2] (first compound 0.5 µM), 0.388.
As for NCI-H1666, the relative viability was found to be 1.18 in experiment [1] (first compound 0.005 µM); 1.05 in experiment [1] (first compound 0.01581 µM); 1.08 in experiment [1] (first compound 0.05 µM); 0.581 in experiment [1] (first compound 0.1581 µM); 0.355 in experiment [1] (first compound 0.5 µM); 1.1 with Lestaurtinib + Foretinib (first compound 0.005 µM). Also, the relative viability in the experiment with Lestaurtinib + Foretinib (first compound 0.01581 µM) was 1.07; in the experiment with Lestaurtinib + Foretinib (first compound 0.05 µM) it was 1.6; with Lestaurtinib + Foretinib (first compound 0.1581 µM) it was 1.02; with Lestaurtinib + Foretinib (first compound 0.5 µM), 0.595; with Lestaurtinib + Dasatinib (first compound 0.005 µM), 1.13; with Lestaurtinib + Dasatinib (first compound 0.01581 µM) it was 0.922. For the same cell line, the relative viability in the experiment with Lestaurtinib + Dasatinib (first compound 0.05 µM) came to 0.924; with Lestaurtinib + Dasatinib (first compound 0.1581 µM), 0.747; with Lestaurtinib + Dasatinib (first compound 0.5 µM), 0.649; in experiment [2] (first compound 0.005 µM) it was 0.988; in experiment [2] (first compound 0.01581 µM), 0.92; in experiment [2] (first compound 0.05 µM), 0.948. The relative viability in experiment [2] (first compound 0.1581 µM) was 0.95; in experiment [2] (first compound 0.5 µM), 0.707.
As to NCI-H1734, the relative viability worked out at 0.849 in experiment [1] (first compound 0.005 µM); 0.957 in experiment [1] (first compound 0.01581 µM); 0.657 in experiment [1] (first compound 0.05 µM); 0.512 in experiment [1] (first compound 0.1581 µM); 0.159 in experiment [1] (first compound 0.5 µM); 0.891 with Lestaurtinib + Foretinib (first compound 0.005 µM). The relative viability with Lestaurtinib + Foretinib (first compound 0.01581 µM) was determined as 0.951; with Lestaurtinib + Foretinib (first compound 0.05 µM), 0.705; with Lestaurtinib + Foretinib (first compound 0.1581 µM), 0.383; in the experiment with Lestaurtinib + Foretinib (first compound 0.5 µM) it was 0.179; with Lestaurtinib + Dasatinib (first compound 0.005 µM) it was 0.48; with Lestaurtinib + Dasatinib (first compound 0.01581 µM), 0.518. Besides, the relative viability with Lestaurtinib + Dasatinib (first compound 0.05 µM) was found to be 0.42; in the experiment with Lestaurtinib + Dasatinib (first compound 0.1581 µM) it was 0.263; with Lestaurtinib + Dasatinib (first compound 0.5 µM), 0.143; in experiment [2] (first compound 0.005 µM), 0.439; in experiment [2] (first compound 0.01581 µM) it was 0.392; in experiment [2] (first compound 0.05 µM), 0.402. Besides, the relative viability in experiment [2] (first compound 0.1581 µM) was found to be 0.397; in experiment [2] (first compound 0.5 µM) it was 0.178.
On to NCI-H1755, for which the relative viability was 1.01 in experiment [1] (first compound 0.005 µM); 0.944 in experiment [1] (first compound 0.01581 µM); 0.633 in experiment [1] (first compound 0.05 µM); 0.265 in experiment [1] (first compound 0.1581 µM); 0.223 in experiment [1] (first compound 0.5 µM); 0.891 with Lestaurtinib + Foretinib (first compound 0.005 µM). Moreover, the relative viability in the experiment with Lestaurtinib + Foretinib (first compound 0.01581 µM) amounted to 0.938; with Lestaurtinib + Foretinib (first compound 0.05 µM), 0.788; with Lestaurtinib + Foretinib (first compound 0.1581 µM), 0.494; in the experiment with Lestaurtinib + Foretinib (first compound 0.5 µM), 0.412; with Lestaurtinib + Dasatinib (first compound 0.005 µM), 0.439; in the experiment with Lestaurtinib + Dasatinib (first compound 0.01581 µM) it was 0.424. The relative viability with Lestaurtinib + Dasatinib (first compound 0.05 µM) worked out at 0.293; with Lestaurtinib + Dasatinib (first compound 0.1581 µM), 0.288; with Lestaurtinib + Dasatinib (first compound 0.5 µM) it was 0.208; in experiment [2] (first compound 0.005 µM), 0.478; in experiment [2] (first compound 0.01581 µM) it was 0.463; in experiment [2] (first compound 0.05 µM), 0.41. Moreover, the values for the relative viability in experiment [2] (first compound 0.1581 µM) and in experiment [2] (first compound 0.5 µM) were 0.36 and 0.353, respectively.
In the case of NCI-H1793, the relative viability in experiment [1] (first compound 0.005 µM) turned out to be 0.504; in experiment [1] (first compound 0.01581 µM), 0.745; in experiment [1] (first compound 0.05 µM), 0.393; in experiment [1] (first compound 0.1581 µM), 0.334; in experiment [1] (first compound 0.5 µM), 0.232; with Lestaurtinib + Foretinib (first compound 0.005 µM) it was 0.684. In addition, the relative viability in the experiment with Lestaurtinib + Foretinib (first compound 0.01581 µM) amounted to 0.702; in the experiment with Lestaurtinib + Foretinib (first compound 0.05 µM), 0.436; with Lestaurtinib + Foretinib (first compound 0.1581 µM), 0.574; with Lestaurtinib + Foretinib (first compound 0.5 µM), 0.39; in the experiment with Lestaurtinib + Dasatinib (first compound 0.005 µM), 0.431; with Lestaurtinib + Dasatinib (first compound 0.01581 µM), 0.392. Moreover, the relative viability with Lestaurtinib + Dasatinib (first compound 0.05 µM) was determined as 0.316; in the experiment with Lestaurtinib + Dasatinib (first compound 0.1581 µM), 0.361; with Lestaurtinib + Dasatinib (first compound 0.5 µM), 0.271; in experiment [2] (first compound 0.005 µM), 0.809; in experiment [2] (first compound 0.01581 µM) it was 0.911; in experiment [2] (first compound 0.05 µM) it was 0.544. Further, the values for the relative viability in experiment [2] (first compound 0.1581 µM) and in experiment [2] (first compound 0.5 µM) were 0.692 and 0.541, respectively.
NCI-H1915: the relative viability in experiment [1] (first compound 0.005 µM) was 0.766; in experiment [1] (first compound 0.01581 µM), 0.801; in experiment [1] (first compound 0.05 µM) it was 0.774; in experiment [1] (first compound 0.1581 µM), 0.724; in experiment [1] (first compound 0.5 µM) it was 0.503; with Lestaurtinib + Foretinib (first compound 0.005 µM), 1.14. For the same cell line, the relative viability with Lestaurtinib + Foretinib (first compound 0.01581 µM) came out at 1.21; with Lestaurtinib + Foretinib (first compound 0.05 µM), 0.869; with Lestaurtinib + Foretinib (first compound 0.1581 µM), 0.762; in the experiment with Lestaurtinib + Foretinib (first compound 0.5 µM), 0.287; with Lestaurtinib + Dasatinib (first compound 0.005 µM) it was 0.37; with Lestaurtinib + Dasatinib (first compound 0.01581 µM), 0.272. Also, the relative viability was 0.243 with Lestaurtinib + Dasatinib (first compound 0.05 µM); 0.236 in the experiment with Lestaurtinib + Dasatinib (first compound 0.1581 µM); 0.191 with Lestaurtinib + Dasatinib (first compound 0.5 µM); 0.589 in experiment [2] (first compound 0.005 µM); 0.432 in experiment [2] (first compound 0.01581 µM); 0.458 in experiment [2] (first compound 0.05 µM). The relative viability turned out to be 0.447 in experiment [2] (first compound 0.1581 µM) and 0.205 in experiment [2] (first compound 0.5 µM).
Turning to NCI-H1944, the relative viability in experiment [1] (first compound 0.005 µM) was 1.12; in experiment [1] (first compound 0.01581 µM) it was 1.01; in experiment [1] (first compound 0.05 µM) it was 0.956; in experiment [1] (first compound 0.1581 µM) it was 0.673; in experiment [1] (first compound 0.5 µM), 0.638; in the experiment with Lestaurtinib + Foretinib (first compound 0.005 µM) it was 0.909. Moreover, the relative viability with Lestaurtinib + Foretinib (first compound 0.01581 µM) is 0.848; with Lestaurtinib + Foretinib (first compound 0.05 µM), 0.698; with Lestaurtinib + Foretinib (first compound 0.1581 µM), 0.652; with Lestaurtinib + Foretinib (first compound 0.5 µM), 0.366; with Lestaurtinib + Dasatinib (first compound 0.005 µM) it was 0.207; in the experiment with Lestaurtinib + Dasatinib (first compound 0.01581 µM), 0.23. In addition, the relative viability came out at 0.176 with Lestaurtinib + Dasatinib (first compound 0.05 µM); 0.137 with Lestaurtinib + Dasatinib (first compound 0.1581 µM); 0.147 in the experiment with Lestaurtinib + Dasatinib (first compound 0.5 µM); 0.663 in experiment [2] (first compound 0.005 µM); 0.595 in experiment [2] (first compound 0.01581 µM); 0.492 in experiment [2] (first compound 0.05 µM). For the same cell line, the relative viability came out at 0.409 in experiment [2] (first compound 0.1581 µM) and 0.25 in experiment [2] (first compound 0.5 µM).
